ChEMBL document CHEMBL1201862, “PubChem BioAssay data set” (2004)
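Cells were grown in 96-well plates and exposed to each compound for 48 hours at five concentrations; endpoints were interpolated linearly between bracketing concentrations, or set to the highest concentration if not reached. Here, GI50 denotes the concentration required for 50% inhibition of growth.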 Activity calls are given as the source filed them. Rule as the data show it: active = GI50 up to about 1.1 µM and inactive = higher.

Columns and labels:
Assay in all cases: NCI anticancer screen, dose series, 48 h
HL-60 = tested on: HL-60
IGROV-1 = tested on: IGROV-1
LOX IMVI = tested on: LOX IMVI
NCI-H23 = tested on: NCI-H23
NCI-H460 = tested on: NCI-H460
OVCAR-4 = tested on: OVCAR-4
RPMI-8226 = tested on: RPMI-8226
SF-268 = tested on: SF-268
SF-295 = tested on: SF-295
SK-MEL-5 = tested on: SK-MEL-5
SR = tested on: SR
UO-31 = tested on: UO-31
HOP-62 = tested on: HOP-62
HOP-92 = tested on: HOP-92
NCI-H522 = tested on: NCI-H522
SK-MEL-2 = tested on: SK-MEL-2
HCT-116 = tested on: HCT-116

## O=C1C(=O)N(C(=O)c2ccc(Cl)c(Cl)c2)c2ccc(Cl)cc21
HL-60
  GI50: 20.3 µM (inactive)
IGROV-1
  GI50: > 100 µM (inactive)
LOX IMVI
  GI50: 44.9 µM (inactive)
NCI-H23
  GI50: > 100 µM (inactive)
NCI-H460
  GI50: 89.7 µM (inactive)
OVCAR-4
  GI50: 64.6 µM (inactive)
RPMI-8226
  GI50: 35.6 µM (inactive)
SF-268
  GI50: > 100 µM (inactive)
SF-295
  GI50: > 100 µM (inactive)
SK-MEL-5
  GI50: > 100 µM (inactive)
SR
  GI50: 89.7 µM (inactive)
UO-31
  GI50: > 100 µM (inactive)

## Cc1nc(N)sc1C(=O)/C=C/c1ccc([N+](=O)[O-])cc1
HL-60
  GI50: > 100 µM (inactive)
HOP-62
  GI50: > 100 µM (inactive)
HOP-92
  GI50: > 100 µM (inactive)
IGROV-1
  GI50: > 100 µM (inactive)
LOX IMVI
  GI50: > 100 µM (inactive)
NCI-H23
  GI50: > 100 µM (inactive)
NCI-H460
  GI50: > 100 µM (inactive)
NCI-H522
  GI50: > 100 µM (inactive)
RPMI-8226
  GI50: > 100 µM (inactive)
SF-268
  GI50: > 100 µM (inactive)
SF-295
  GI50: > 100 µM (inactive)
SK-MEL-2
  GI50: > 100 µM (inactive)
SK-MEL-5
  GI50: > 100 µM (inactive)
UO-31
  GI50: > 100 µM (inactive)

## COC(=O)C(=O)C(C(=O)C(=O)Nc1cc(C)ccc1C)c1nc2ccc(C(=O)c3ccccc3)cc2nc1O (configuration not stated)
HCT-116
  GI50: > 100 µM (inactive)
HOP-92
  GI50: 45.8 µM (inactive)
IGROV-1
  GI50: > 100 µM (inactive)
NCI-H23
  GI50: > 100 µM (inactive)
NCI-H522
  GI50: 36.3 µM (inactive)
OVCAR-4
  GI50: > 100 µM (inactive)
RPMI-8226
  GI50: 94.2 µM (inactive)
SF-268
  GI50: > 100 µM (inactive)
SF-295
  GI50: 83.6 µM (inactive)
SK-MEL-2
  GI50: > 100 µM (inactive)
SK-MEL-5
  GI50: 62.1 µM (inactive)
SR
  GI50: 68.5 µM (inactive)
UO-31
  GI50: 52.7 µM (inactive)

## O=C1NC(=O)C2C1c1[nH]c3ccccc3c1C1CCCC12 (configuration not stated)
HL-60
  GI50: 0.573 µM (active)
IGROV-1
  GI50: 14.1 µM (inactive)
LOX IMVI
  GI50: 3.52 µM (inactive)
NCI-H23
  GI50: 3.79 µM (inactive)
NCI-H460
  GI50: 4.17 µM (inactive)
OVCAR-4
  GI50: 25.6 µM (inactive)
RPMI-8226
  GI50: 3.41 µM (inactive)
SF-268
  GI50: 4.02 µM (inactive)
SF-295
  GI50: 1.29 µM (inactive)
SK-MEL-5
  GI50: 0.893 µM (active)
SR
  GI50: 2.81 µM (inactive)
UO-31
  GI50: 6.55 µM (inactive)

## NC(=S)N/N=C/C(=C/Nc1ccccc1)[N+](=O)[O-]
HCT-116
  GI50: > 100 µM (inactive)
HL-60
  GI50: > 100 µM (inactive)
HOP-62
  GI50: > 100 µM (inactive)
HOP-92
  GI50: > 100 µM (inactive)
IGROV-1
  GI50: > 100 µM (inactive)
LOX IMVI
  GI50: > 100 µM (inactive)
NCI-H23
  GI50: > 100 µM (inactive)
NCI-H522
  GI50: > 100 µM (inactive)
OVCAR-4
  GI50: > 100 µM (inactive)
RPMI-8226
  GI50: > 100 µM (inactive)
SF-268
  GI50: > 100 µM (inactive)
SF-295
  GI50: > 100 µM (inactive)
SK-MEL-2
  GI50: > 100 µM (inactive)

## CC(C)NCCCC(C)Nc1ccnc2ccc3nn(C)nc3c12 (configuration not stated)
HCT-116
  GI50: 34.8 µM (inactive)
HL-60
  GI50: 42.4 µM (inactive)
HOP-62
  GI50: 52.7 µM (inactive)
IGROV-1
  GI50: > 100 µM (inactive)
LOX IMVI
  GI50: 33.6 µM (inactive)
NCI-H23
  GI50: > 100 µM (inactive)
NCI-H460
  GI50: 38.6 µM (inactive)
NCI-H522
  GI50: > 100 µM (inactive)
RPMI-8226
  GI50: 74.8 µM (inactive)
SF-268
  GI50: 96.8 µM (inactive)
SF-295
  GI50: 34.6 µM (inactive)
SK-MEL-5
  GI50: 38.5 µM (inactive)
SR
  GI50: 40.1 µM (inactive)
UO-31
  GI50: 33.7 µM (inactive)

## CCOC(=O)c1c2ccc(/C=C/C(=O)OC)ccc-2c(C(=O)OCC)c1N
HL-60
  GI50: > 100 µM (inactive)
HOP-92
  GI50: > 100 µM (inactive)
IGROV-1
  GI50: > 100 µM (inactive)
LOX IMVI
  GI50: > 100 µM (inactive)
NCI-H23
  GI50: > 100 µM (inactive)
NCI-H460
  GI50: > 100 µM (inactive)
NCI-H522
  GI50: > 100 µM (inactive)
OVCAR-4
  GI50: > 100 µM (inactive)
SF-268
  GI50: 2.11 µM (inactive)
SF-295
  GI50: > 100 µM (inactive)
SK-MEL-2
  GI50: > 100 µM (inactive)
SK-MEL-5
  GI50: > 100 µM (inactive)
UO-31
  GI50: > 100 µM (inactive)

## O=C(/C=C/c1ccc(Cl)cc1)c1ccc(Cl)c(Cl)c1
HCT-116
  GI50: 4.99 µM (inactive)
HL-60
  GI50: 3.44 µM (inactive)
HOP-62
  GI50: 22 µM (inactive)
HOP-92
  GI50: > 10 µM (inactive)
IGROV-1
  GI50: 22.3 µM (inactive)
LOX IMVI
  GI50: 15.2 µM (inactive)
NCI-H23
  GI50: 9.4 µM (inactive)
NCI-H460
  GI50: 34.6 µM (inactive)
NCI-H522
  GI50: 18.8 µM (inactive)
OVCAR-4
  GI50: 26.4 µM (inactive)
RPMI-8226
  GI50: 2.95 µM (inactive)
SF-268
  GI50: 20.7 µM (inactive)
SF-295
  GI50: 35.2 µM (inactive)
SK-MEL-2
  GI50: 23.4 µM (inactive)
SK-MEL-5
  GI50: 18.1 µM (inactive)
UO-31
  GI50: 28.5 µM (inactive)

## CC(C)N1CCOC(c2ccc(O)c(O)c2)C1 (configuration not stated)
HL-60
  GI50: > 100 µM (inactive)
HOP-62
  GI50: > 100 µM (inactive)
HOP-92
  GI50: > 100 µM (inactive)
IGROV-1
  GI50: > 100 µM (inactive)
LOX IMVI
  GI50: > 100 µM (inactive)
NCI-H23
  GI50: > 100 µM (inactive)
NCI-H460
  GI50: > 100 µM (inactive)
NCI-H522
  GI50: > 100 µM (inactive)
OVCAR-4
  GI50: > 100 µM (inactive)
RPMI-8226
  GI50: > 100 µM (inactive)
SF-268
  GI50: > 100 µM (inactive)
SF-295
  GI50: > 100 µM (inactive)
SK-MEL-2
  GI50: > 100 µM (inactive)
SK-MEL-5
  GI50: > 100 µM (inactive)
UO-31
  GI50: > 100 µM (inactive)

## C[N+](C)(C)CC(=O)N/N=C(\C(=O)Nc1ccc(Cl)cc1)C1C(=O)N(c2ccccc2)N=C1N (configuration not stated)
HCT-116
  GI50: > 100 µM (inactive)
HL-60
  GI50: > 100 µM (inactive)
HOP-62
  GI50: > 100 µM (inactive)
HOP-92
  GI50: > 100 µM (inactive)
IGROV-1
  GI50: > 100 µM (inactive)
LOX IMVI
  GI50: > 100 µM (inactive)
NCI-H23
  GI50: > 100 µM (inactive)
NCI-H460
  GI50: > 100 µM (inactive)
NCI-H522
  GI50: > 100 µM (inactive)
OVCAR-4
  GI50: > 100 µM (inactive)
RPMI-8226
  GI50: > 100 µM (inactive)
SF-268
  GI50: > 100 µM (inactive)
SK-MEL-2
  GI50: > 100 µM (inactive)
SK-MEL-5
  GI50: > 100 µM (inactive)
UO-31
  GI50: > 100 µM (inactive)

## O=C(Nc1cc(Cl)cc(Cl)c1)/C(Cc1nc2ccccc2nc1O)=N/NC(=O)c1ccncc1
HCT-116
  GI50: > 100 µM (inactive)
HL-60
  GI50: > 100 µM (inactive)
HOP-62
  GI50: > 100 µM (inactive)
HOP-92
  GI50: 14.4 µM (inactive)
IGROV-1
  GI50: > 100 µM (inactive)
LOX IMVI
  GI50: > 100 µM (inactive)
NCI-H460
  GI50: > 100 µM (inactive)
OVCAR-4
  GI50: > 100 µM (inactive)
RPMI-8226
  GI50: > 100 µM (inactive)
SF-295
  GI50: > 100 µM (inactive)
SK-MEL-2
  GI50: > 100 µM (inactive)
SK-MEL-5
  GI50: > 100 µM (inactive)
UO-31
  GI50: > 100 µM (inactive)

## N#CC(C(=O)/C(=N/NC(=O)c1ccccc1O)C(C#N)c1ccccc1)c1ccccc1 (configuration not stated)
HCT-116
  GI50: > 100 µM (inactive)
HOP-62
  GI50: > 100 µM (inactive)
HOP-92
  GI50: > 100 µM (inactive)
IGROV-1
  GI50: > 100 µM (inactive)
LOX IMVI
  GI50: > 100 µM (inactive)
NCI-H23
  GI50: > 100 µM (inactive)
NCI-H460
  GI50: > 100 µM (inactive)
OVCAR-4
  GI50: > 100 µM (inactive)
RPMI-8226
  GI50: > 100 µM (inactive)
SF-268
  GI50: > 100 µM (inactive)
SF-295
  GI50: > 100 µM (inactive)
SK-MEL-2
  GI50: > 100 µM (inactive)
UO-31
  GI50: > 100 µM (inactive)

## NC(=S)N/N=C1/C(=O)N(c2ccc(Cl)cc2Cl)C(=O)C(=O)C1c1nc2ccccc2s1 (configuration not stated)
HCT-116
  GI50: > 100 µM (inactive)
HOP-62
  GI50: > 100 µM (inactive)
HOP-92
  GI50: > 100 µM (inactive)
IGROV-1
  GI50: > 100 µM (inactive)
LOX IMVI
  GI50: > 100 µM (inactive)
NCI-H23
  GI50: > 100 µM (inactive)
NCI-H460
  GI50: > 100 µM (inactive)
NCI-H522
  GI50: > 100 µM (inactive)
OVCAR-4
  GI50: > 100 µM (inactive)
RPMI-8226
  GI50: > 100 µM (inactive)
SF-268
  GI50: > 100 µM (inactive)
SF-295
  GI50: > 100 µM (inactive)
SK-MEL-2
  GI50: > 100 µM (inactive)
SK-MEL-5
  GI50: > 100 µM (inactive)
UO-31
  GI50: > 100 µM (inactive)

## CN(C)CC1CCC(CN(C)C)C1=NO (configuration not stated)
HCT-116
  GI50: > 100 µM (inactive)
HOP-62
  GI50: > 100 µM (inactive)
HOP-92
  GI50: > 100 µM (inactive)
IGROV-1
  GI50: > 100 µM (inactive)
LOX IMVI
  GI50: > 100 µM (inactive)
NCI-H460
  GI50: > 10 µM (inactive)
NCI-H522
  GI50: > 100 µM (inactive)
OVCAR-4
  GI50: > 100 µM (inactive)
RPMI-8226
  GI50: > 100 µM (inactive)
SF-268
  GI50: > 100 µM (inactive)
SF-295
  GI50: > 10 µM (inactive)
SK-MEL-5
  GI50: > 100 µM (inactive)
SR
  GI50: 29 µM (inactive)
UO-31
  GI50: > 100 µM (inactive)
